{"source": "patent US20260315564A1", "about": "“THE USE OF TP3 (THYMOPENTIN ANALOG) BY INCREASING THE ACTIVITY AND NUMBER OF T-CELLS INVOLVED IN THE DEFENSE MECHANISM OF THE IMMUNE SYSTEM OF MAMMALS, FOR THE PREVENTION OR TREATMENT OF DISEASES TO EXTEND THE AVERAGE LIFESPAN” (priority 2023, published 2026)", "key": {"[1]": {"test_system": "Antibody production (immunized with BVVT)", "experiment": "Antibody production (anti-BVVT titer) in Balb/c nu/nu mice", "type": "in vivo", "settings": "ip, n = 10/group, control < 3.0", "method": "Rats (Hannover Wistar) were treated (i.p.) within 6-12 hours after birth. Treatments after birth in a single session or in another examination • on the 7th day after the first treatment; • another group was vaccinated 3 times a week after the first day of treatment. • in a subsequent group, the treatments took place over three weeks (9× in total) (10-3,10-5,10-7//10-9, 10-11,10-12,10-13 M/animal, i.p.). • in the fourth test series, the animals were treated with TP fragments at 0, 1, 2, 4, or 5 days of age. The rats were randomly immunized on the 14th day after birth (1% BVVT with 0.5 ml cell suspension, i.p.). Immune responses were measured after 7 days on day 21 of the experiment. 1.2. Determination of anti-BVVT Ab titers (from rat blood samples ex vivo) • with the haemagglutination method (Takátsy and Fürész, 1955) on 96-well plates (Flow). 50 ul of 0.9% NaCl solution was added to each well. The sera (50 μl) were diluted by half dilution in 12 steps, mixed with 25 pμl 2% BVVT cell suspension, and incubated (1 hour at 37 °C). The hemagglutination titers of the sera are determined. Values expressed in logarithmic values refer to total agglutination.\nMice were treated for 4 weeks 3 times a week (every other day) with TP fragments (10-9, 10-8, 10-7//10-3, 10-2, 10-1 M/animal ip. (Veys et al., 1983) at the end of the treatments ([…]), the mice were immunized (with 0.5 ml 1% BVVT suspension ip. The immune response was expressed in antibody titers as above)."}, "[2]": {"test_system": "Thy1+, Lyt 1+ (helper) and Lyt 2+ (suppressor) cells", "experiment": "Thy1+ cells and helper/suppressor (Lyt 1/Lyt 2) cell ratio in bone marrow and spleen of Balb/c nu/nu mice", "type": "in vivo", "settings": "for Lyt 1/Lyt 2 (helper/suppressor cell ratio) / Thy1+ (%): 10^-5 M/mice/ip every other day for 3 weeks (9x)", "method": "• D.1/Direct cytotoxicity test/for the detection of Thy, Lyt antigens (Fathman 1979, in Immunol Meth I. Eds. Lefkovits, Pernis, Acad Press, New York, pp. 212-213.) was used. Subpopulation ratios were determined from bone marrow cells, thymus, and spleen cells isolated from the lymphatic organs of mice. The cell suspensions (1.087-1.088 g/cm3) were centrifuged ona density gradient (2000 rpm, 20 minutes), and the cells were washed 3× with RPMI1640 medium containing 0.3% BSA, then adjusted to 107/ml. Thyl, Lyt 1, Lyt2 monoclonal antibodies (McAb/Ando I. (ICRF Human Tumor Immunol. UCM Med Sch. London) were obtained. 25 μl McAb and 25 ul cell suspension were incubated (60′, 40C1), after centrifugation (1250 rpm 10′), the cells were resuspended with 40 μul of diluted (1:50) rabbit complement, then incubated (370C, 60′). The cell suspensions were stained with 1:5 dilution of Eosin Y (Jansen). the ratio of live to non-living cells was determined.\nn=8/group; Treatment: 10^-5 M/mice/ip every other day for 3 weeks (9×/ip.)"}, "[3]": {"test_system": "antibody production (IgM)", "experiment": "Antibody production (IgM) in aged mice", "type": "in vivo, aged mice (Balb/c)", "settings": "second value column under head 'PFC IgM/logx^2'; aged mice 18 months old; n = 8/group; young control 84.1, aged 41.0"}, "[4]": {"test_system": "Active E-rosette forming cells (human lymphocytes)", "experiment": "Active E-rosette forming cells", "type": "cell-based", "settings": "control 6.3 (TP5), 5.2 (TP3)", "method": "The test was carried out according to the method of (Wybran and Fundenberg 1973). 107/ml lymphocytes from either healthy blood donors or autoimmune patients were included in the tests. The effect of the substances was tested in the presence of 100 μl of […]. test compound. After an incubation period, 100 μul of cell suspension was placed on a glass slide, fixed for 3 minutes (with 50 μl of 3% glutaraldehyde solution), and stored in a humid chamber until evaluation."}, "[5]": {"test_system": "peritoneal macrophages", "experiment": "Phagocytic function of peritoneal macrophages ex vivo in CFLP outbred mice (CY-immunosuppressed)", "settings": "for macrophage phagocytosis ex vivo: CY-treated mice, n = 15, untreated control 194.5, CY 111.5", "description": "6.2./Examination of the Effect on the Phagocytic Function of Peritoneal Macrophages CFLP Outbred in Mice\nMacrophage phagocytosis ex vivo (X=yeast/100 cells)"}, "[6]": {"settings": "12-24 months, Friedmann 1985, in words; cited from earlier work"}}, "note": "Marks after values point to notes of the source that are not given here. Residues, ends and D or L forms follow the SMILES beside them."}
{"smiles": "CC(C)[C@H](NC(=O)[C@H](CC(=O)O)NC(=O)[C@H](CCCCN)NC(=O)[C@@H](N)CCCN=C(N)N)C(=O)N[C@@H](Cc1ccc(O)cc1)C(=O)O", "note": "[TP5] (H-RKDVY-OH)", "values": [{"measurement": "antibody production (titer)", "setting": "[1]; 10^-2 M/mouse (M/eger)", "value": "26.4 **"}, {"measurement": "antibody production (titer)", "setting": "[1]; 10^-3 M/mouse (M/eger)", "value": 19.8}, {"measurement": "antibody production (titer)", "setting": "[1]; 10^-4 M/mouse (M/eger)", "value": 11.9}, {"measurement": "antibody production (titer)", "setting": "[1]; 10^-7 M/mouse (M/eger)", "value": "24.6 **"}, {"measurement": "antibody production (titer)", "setting": "[1]; 10^-8 M/mouse (M/eger)", "value": "19.9 *"}, {"measurement": "antibody production (titer)", "setting": "[1]; 10^-9 M/mouse (M/eger)", "value": 14.5}, {"measurement": "Lyt 1/Lyt 2 (helper/suppressor cell ratio)", "setting": "[2]; bone marrow (Csontvelő), control 0.97", "value": 1.95}, {"measurement": "Thy1+ (%)", "setting": "[2]; bone marrow (Csontvelő), control 3.7", "value": 47.3, "unit": "%"}, {"measurement": "Lyt 1/Lyt 2 (helper/suppressor cell ratio)", "setting": "[2]; spleen (Lép), control 1.10", "value": 2.48}, {"measurement": "Thy1+ (%)", "setting": "[2]; spleen (Lép), control 5.4", "value": 71.0, "unit": "%"}, {"measurement": "change in the spleen", "setting": "[2]; spleen, 10^-5 M/mice/ip, 9x", "value": 130, "unit": "%"}, {"measurement": "IgM/logx^2", "setting": "[3]", "value": 44.7, "unit": "logx^2"}, {"measurement": "Active E-rosette forming cells", "setting": "[4]; 10^-5 mol/l", "value": "8.6*"}, {"measurement": "Active E-rosette forming cells", "setting": "[4]; 10^-7 mol/l", "value": 7.5}, {"measurement": "Active E-rosette forming cells", "setting": "[4]; 10^-9 mol/l", "value": 7.2}, {"measurement": "Active E-rosette forming cells", "setting": "[4]; 10^-11 mol/l", "value": "10.7*"}, {"measurement": "Active E-rosette forming cells", "setting": "[4]; 10^-13 mol/l", "value": "7.9*"}, {"measurement": "phagocytic activity of macrophages", "setting": "[5]; CY immunosuppression, 1.0 mg/kg/sc (TP3), in words", "value": "ineffective"}, {"measurement": "macrophage phagocytosis ex vivo", "setting": "[5]; TP dose 0.1 (mg/kg/sc)", "value": 149.6, "unit": "yeast/100 cells"}, {"measurement": "macrophage phagocytosis ex vivo", "setting": "[5]; TP dose 1.0 (mg/kg/sc)", "value": 123.1, "unit": "yeast/100 cells"}, {"measurement": "macrophage phagocytosis ex vivo", "setting": "[5]; TP dose 10.0 (mg/kg/sc)", "value": 95.6, "unit": "yeast/100 cells"}, {"measurement": "safety in patients", "setting": "[6]", "value": "well-used, safe drug candidate"}]}
